Reference: publication PMC12920416, “Preclinical development of [^18F]TAAR1-2203 as a PET radioligand for imaging TAAR1 expression and receptor occupancy” (European Journal of Nuclear Medicine and Molecular Imaging, 2025)
Converted amounts (≈) assume the structure as drawn.

Assays:
[1] = Plasma stability of non-radioactive reference, mouse plasma; assay type: in vitro ADME; details: 37 °C, up to 5 h
[2] = Aqueous solubility; assay type: physicochemical; details: pH 6.5 in 0.05 M phosphate buffer
Text: (§1) ^a Aqueous solubility at pH 6.5 in 0.05 M phosphate buffer; ^b pH 7.4

[3] = molecular target: mouse P-glycoprotein (Mus musculus, UniProt P21447); experiment: P-glycoprotein efflux assay, mouse P-gp; assay type: in vitro ADME
[4] = PAMPA permeability; assay type: in vitro ADME
Text: (§2) Supplement 259_2025_7564_MOESM1_ESM.docx, table 1: Supplemental Table 1. Physicochemical properties of TAAR1-2203. | column: 194.2

[5] = Chemical stability in aqueous buffer; assay type: physicochemical; details: pH 1, 4, 6.5 and 8 for 2 h at 37 °C
Text: as §2

[6] = logD (physicochemical profiling); details: pH 7.4
Text: as §1

[7] = 4-week repeat dose toxicity study, dogs; assay type: in vivo; details: 4-week repeat dose toxicity study
[8] = molecular target: human P-glycoprotein (Homo sapiens, UniProt P08183); experiment: P-glycoprotein efflux assay, human P-gp; assay type: in vitro ADME
[9] = Plasma stability of non-radioactive reference, rat plasma; assay type: in vitro ADME; details: 37 °C, up to 5 h
[10] = molecular target: rat TAAR1 (Rattus norvegicus, UniProt Q923Y9); experiment: Competition binding assay, rat TAAR1
[11] = molecular target: T1, TAAR1 (Homo sapiens, UniProt Q96RJ0); experiment: Competition binding assay, human TAAR1
T1 sequence (Q96RJ0 1-339): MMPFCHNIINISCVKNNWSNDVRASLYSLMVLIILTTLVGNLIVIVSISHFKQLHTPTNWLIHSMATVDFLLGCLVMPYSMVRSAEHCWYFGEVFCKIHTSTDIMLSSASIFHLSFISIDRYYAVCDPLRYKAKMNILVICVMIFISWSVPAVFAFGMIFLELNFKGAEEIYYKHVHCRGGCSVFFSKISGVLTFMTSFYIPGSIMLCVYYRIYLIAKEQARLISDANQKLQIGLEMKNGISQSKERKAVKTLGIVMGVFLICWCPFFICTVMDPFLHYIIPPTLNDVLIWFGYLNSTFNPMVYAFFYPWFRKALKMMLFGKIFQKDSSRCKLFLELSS

[12] = Clearance in rat liver microsomes; assay type: in vitro ADME
Text: (§3) Supplement 259_2025_7564_MOESM1_ESM.docx, table 2: Supplemental Table 2. ADME profile of TAAR1 ligand TAAR1-2203. | column: 14 / 10

[13] = molecular target: mouse TAAR1 (Mus musculus, UniProt Q923Y8); experiment: Competition binding assay, mouse TAAR1
[14] = Plasma stability of non-radioactive reference, non-human primate plasma; assay type: in vitro ADME; details: 37 °C, up to 5 h
[15] = Plasma protein binding of TAAR1-2203, rat plasma; assay type: in vitro ADME
[16] = Clearance in human liver microsomes; assay type: in vitro ADME
Text: as §3

[17] = Clearance in rat hepatocytes; assay type: in vitro ADME
Text: as §3

[18] = Plasma stability of non-radioactive reference, human plasma; assay type: in vitro ADME; details: 37 °C, up to 5 h
[19] = Plasma protein binding of TAAR1-2203, human plasma; assay type: in vitro ADME
[20] = Clearance in human hepatocytes; assay type: in vitro ADME
Text: as §3

[21] = molecular target: TAAR1; experiment: Competition binding assay, cynomolgus monkey TAAR1
[22] = 4-week repeat dose toxicity study, rats; assay type: in vivo; details: 4-week repeat dose toxicity study

Chain of human P-glycoprotein (P08183 whole entry): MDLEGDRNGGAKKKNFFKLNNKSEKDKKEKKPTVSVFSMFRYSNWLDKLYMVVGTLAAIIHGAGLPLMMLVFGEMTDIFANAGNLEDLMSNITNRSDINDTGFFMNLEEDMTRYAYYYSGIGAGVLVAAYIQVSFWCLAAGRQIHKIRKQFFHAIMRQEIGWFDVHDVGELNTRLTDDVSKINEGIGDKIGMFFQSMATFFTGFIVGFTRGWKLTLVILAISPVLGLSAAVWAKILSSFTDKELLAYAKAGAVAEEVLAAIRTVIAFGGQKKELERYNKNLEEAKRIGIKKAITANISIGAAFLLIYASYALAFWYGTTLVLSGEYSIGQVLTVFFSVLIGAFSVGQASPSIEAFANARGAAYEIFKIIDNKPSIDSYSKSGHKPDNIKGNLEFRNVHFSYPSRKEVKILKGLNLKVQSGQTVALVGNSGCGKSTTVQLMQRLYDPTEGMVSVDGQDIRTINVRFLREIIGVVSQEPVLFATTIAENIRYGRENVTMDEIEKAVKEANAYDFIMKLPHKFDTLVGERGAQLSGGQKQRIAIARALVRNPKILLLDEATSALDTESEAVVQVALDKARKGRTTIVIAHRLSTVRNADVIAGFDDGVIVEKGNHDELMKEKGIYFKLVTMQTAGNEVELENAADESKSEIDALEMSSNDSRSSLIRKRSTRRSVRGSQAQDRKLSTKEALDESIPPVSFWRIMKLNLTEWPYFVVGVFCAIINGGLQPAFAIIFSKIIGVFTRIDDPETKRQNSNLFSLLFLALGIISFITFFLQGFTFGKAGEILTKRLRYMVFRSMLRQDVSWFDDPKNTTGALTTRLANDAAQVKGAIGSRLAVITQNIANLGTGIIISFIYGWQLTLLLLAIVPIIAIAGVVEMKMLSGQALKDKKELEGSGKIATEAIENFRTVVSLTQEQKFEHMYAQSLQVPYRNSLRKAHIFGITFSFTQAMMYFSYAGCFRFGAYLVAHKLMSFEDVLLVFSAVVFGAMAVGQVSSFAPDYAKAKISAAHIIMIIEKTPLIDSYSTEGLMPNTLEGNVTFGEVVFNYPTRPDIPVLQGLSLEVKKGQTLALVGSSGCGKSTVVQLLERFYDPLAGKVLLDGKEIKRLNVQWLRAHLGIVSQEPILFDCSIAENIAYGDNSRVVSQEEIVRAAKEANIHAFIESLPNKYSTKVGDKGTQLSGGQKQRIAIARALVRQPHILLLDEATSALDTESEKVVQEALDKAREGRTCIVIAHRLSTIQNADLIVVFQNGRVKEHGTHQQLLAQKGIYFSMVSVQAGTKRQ
Chain of mouse P-glycoprotein (P21447 whole entry): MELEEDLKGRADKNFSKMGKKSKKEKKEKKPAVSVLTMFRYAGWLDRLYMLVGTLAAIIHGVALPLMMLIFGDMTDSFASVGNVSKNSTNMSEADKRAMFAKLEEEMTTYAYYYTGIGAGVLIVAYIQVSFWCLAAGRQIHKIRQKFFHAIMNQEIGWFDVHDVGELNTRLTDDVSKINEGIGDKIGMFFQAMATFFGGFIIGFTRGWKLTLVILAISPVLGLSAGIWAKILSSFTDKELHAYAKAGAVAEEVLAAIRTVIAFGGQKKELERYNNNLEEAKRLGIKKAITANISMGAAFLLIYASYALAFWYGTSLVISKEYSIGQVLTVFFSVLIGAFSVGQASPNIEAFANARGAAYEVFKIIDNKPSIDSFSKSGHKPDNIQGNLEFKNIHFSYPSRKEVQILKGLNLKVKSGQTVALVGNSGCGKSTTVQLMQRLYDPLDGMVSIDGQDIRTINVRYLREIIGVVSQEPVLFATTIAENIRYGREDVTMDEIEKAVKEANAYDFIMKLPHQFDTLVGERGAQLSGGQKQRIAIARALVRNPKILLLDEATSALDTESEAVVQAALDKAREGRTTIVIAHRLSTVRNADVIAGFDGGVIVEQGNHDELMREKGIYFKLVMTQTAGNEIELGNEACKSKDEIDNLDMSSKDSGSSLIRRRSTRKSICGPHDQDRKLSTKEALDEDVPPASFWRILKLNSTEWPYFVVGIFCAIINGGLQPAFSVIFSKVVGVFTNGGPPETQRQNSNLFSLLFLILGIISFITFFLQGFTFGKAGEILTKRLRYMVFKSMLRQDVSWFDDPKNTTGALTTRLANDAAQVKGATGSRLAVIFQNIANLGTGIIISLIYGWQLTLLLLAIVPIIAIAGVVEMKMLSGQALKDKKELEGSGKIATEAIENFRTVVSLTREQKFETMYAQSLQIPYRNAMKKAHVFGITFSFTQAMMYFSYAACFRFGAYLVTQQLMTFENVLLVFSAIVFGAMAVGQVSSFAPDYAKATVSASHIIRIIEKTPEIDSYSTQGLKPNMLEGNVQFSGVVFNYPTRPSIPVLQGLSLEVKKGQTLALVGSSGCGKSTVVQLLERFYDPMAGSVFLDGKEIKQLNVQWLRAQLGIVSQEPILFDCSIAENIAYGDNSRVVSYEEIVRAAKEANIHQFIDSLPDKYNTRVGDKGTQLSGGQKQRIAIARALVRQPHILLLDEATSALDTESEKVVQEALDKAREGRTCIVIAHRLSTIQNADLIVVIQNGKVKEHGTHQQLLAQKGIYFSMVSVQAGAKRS
Chain of rat TAAR1 (Q923Y9 whole entry): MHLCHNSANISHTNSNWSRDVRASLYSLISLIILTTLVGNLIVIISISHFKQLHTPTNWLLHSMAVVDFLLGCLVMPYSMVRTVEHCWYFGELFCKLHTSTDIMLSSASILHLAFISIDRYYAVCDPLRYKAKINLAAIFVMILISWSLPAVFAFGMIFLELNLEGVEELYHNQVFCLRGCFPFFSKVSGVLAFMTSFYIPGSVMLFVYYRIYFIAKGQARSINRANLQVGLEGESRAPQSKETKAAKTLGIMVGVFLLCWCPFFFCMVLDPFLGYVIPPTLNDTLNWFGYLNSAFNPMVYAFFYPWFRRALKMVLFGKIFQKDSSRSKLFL
Chain of mouse TAAR1 (Q923Y8 whole entry): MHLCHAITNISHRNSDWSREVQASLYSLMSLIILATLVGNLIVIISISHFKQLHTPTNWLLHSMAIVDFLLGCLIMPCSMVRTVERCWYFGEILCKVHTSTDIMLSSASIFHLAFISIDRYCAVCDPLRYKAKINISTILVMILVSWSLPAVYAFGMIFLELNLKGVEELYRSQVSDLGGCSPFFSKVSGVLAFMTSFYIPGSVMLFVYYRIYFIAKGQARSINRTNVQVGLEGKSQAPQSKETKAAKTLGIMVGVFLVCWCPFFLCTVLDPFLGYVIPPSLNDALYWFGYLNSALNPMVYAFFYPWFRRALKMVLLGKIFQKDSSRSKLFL

Compound: Cc1c(F)cccc1[C@H]1COC(N)=N1 [TAAR1-2203]
- Stability in mouse plasma [1]: No degradation was observed
- Solubility [2]: 210 µg/mL (≈ 1080 µM)
- Papp, AB inhibitor, mouse P-glycoprotein assay [3]: 31.6 ×10⁻⁶ cm/s
- mouse P-glycoprotein efflux ratio [3]: 1.0
- PAMPA Peff [4]: 14.5 cm/s*10E^-6
- Chemical stability in aqueous buffer [5]: Stable at pH 1, 4, 6.5 and 8 for 2 h at 37 °C
- logD [6]: 1.12
- Doses well tolerated without adverse events, dogs [7]: up to 3 mg/kg
- Papp, AB inhibitor, human P-glycoprotein assay [8]: 41.2 ×10⁻⁶ cm/s
- human P-glycoprotein efflux ratio [8]: 1.2
- Stability in rat plasma [9]: No degradation was observed
- Ki [10]: 7.4 nM
- Ki [11]: 5.7 nM
- rat clearance in microsomes [12]: 10 µL/min/mg protein
- Ki [13]: 0.9 nM
- Stability in non-human primate plasma [14]: No degradation was observed
- Free fraction in rodent plasma ([15]; non-radioactive TAAR1-2203): approximately 60%
- Free fraction in rat plasma ([15]; rat): 61%
- human clearance in microsomes [16]: 14 µL/min/mg protein
- rat clearance in hepatocytes [17]: 1.7 µL/min/10E6 cells
- Stability in human plasma [18]: No degradation was observed
- human plasma free fraction ([19]; human): 62%
- Free fraction in human plasma ([19]; non-radioactive TAAR1-2203): approximately 60%
- human clearance in hepatocytes [20]: 10 µL/min/10E6 cells
- Ki [21]: 22.5 nM
- Doses well tolerated without adverse events, rats [22]: ≤ 10 mg/kg
